Drawing on PubChem BioAssay (NCI), this text covers TGI and GI50 for 15 compounds.

Some test systems named below: 786-0 renal; NCI-H226 lung; HT29 colon; UACC-257 melanoma; CAKI-1 renal; HOP-62 NSCLC; M14 melanoma; RXF 393 renal; MDA-MB-435; SF-539 CNS.
What all share (test): NCI tumour cell line growth inhibition, 48 h

Structures are written as SMILES.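 Results reflect a 48-hour exposure of cells in 96-well plates to compound at five concentrations. GI50 is the concentration that inhibits growth by half. TGI: total growth inhibition.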

Consider `Cc1cc(-c2ccccc2)nc2oc(=O)n(C)c12`, for which the TGI with 786-0 renal, in the experiment on NCI-H226 lung, in the experiment on HT29 colon, with UACC-257 melanoma, in the experiment with CAKI-1 renal and in the experiment on HOP-62 NSCLC was above 100 µM throughout. For the same compound, the TGI with M14 melanoma, in the experiment on RXF 393 renal and with MDA-MB-435 was above 100 µM each time.
Take `O=C1CC[C@@]23CC(=O)O[C@@H]2CCCC3C1` (some centres undefined): the TGI in the experiment on 786-0 renal, in the experiment on SF-539 CNS, in the experiment with NCI-H226 lung, in the experiment on HT29 colon, in the experiment with UACC-257 melanoma and in the experiment with CAKI-1 renal was above 100 µM throughout. In addition, the TGI in the experiment with HOP-62 NSCLC, in the experiment with M14 melanoma and in the experiment with RXF 393 renal was above 100 µM in each case.
For the compound `CCOC(=O)N1CCN(c2c(N)nc(C)[nH]c2=O)CC1`, the TGI in the experiment on 786-0 renal, in the experiment with SF-539 CNS, with NCI-H226 lung, with HT29 colon, in the experiment with UACC-257 melanoma and in the experiment with HOP-62 NSCLC was above 100 µM throughout. In addition, the TGI in the experiment on M14 melanoma and with MDA-MB-435 was above 100 µM each time.
Consider `CC[C@H](NC(=O)OC(C)(C)C)C(=O)NCP(=O)(OCc1ccc([N+](=O)[O-])cc1)OCc1ccc([N+](=O)[O-])cc1`, for which the TGI in the experiment on 786-0 renal was above 100 µM; with SF-539 CNS, 90 µM; with NCI-H226 lung, above 100 µM; in the experiment with HT29 colon it was 51.8 µM; with UACC-257 melanoma it was 26.9 µM; in the experiment on CAKI-1 renal, above 100 µM. Moreover, the TGI with HOP-62 NSCLC, with M14 melanoma and with MDA-MB-435 was above 100 µM throughout.
Regarding `OC(CC(O)(C(F)(F)Cl)C(F)(F)Cl)c1ccccc1` (centres undefined), the TGI in the experiment on SF-539 CNS, with NCI-H226 lung, in the experiment on HT29 colon, in the experiment with UACC-257 melanoma, with CAKI-1 renal and in the experiment with HOP-62 NSCLC was above 10 µM throughout. The same compound yielded a TGI with RXF 393 renal above 10 µM.
`CC(C)=C/C(CC(O)(C(F)(F)F)C(F)(F)F)=N\O`: the TGI with 786-0 renal, in the experiment with SF-539 CNS, in the experiment on NCI-H226 lung, with HT29 colon, with UACC-257 melanoma and in the experiment on HOP-62 NSCLC was above 100 µM in each case. Also, the TGI with M14 melanoma, with RXF 393 renal and in the experiment on MDA-MB-435 was above 100 µM in each case.
Turning to `O=C1c2cc3c(cc2-c2c1c1ccc(Cl)cc1c(=O)n2CCCn1ccnc1)OCO3`, the GI50 in the experiment on SF-539 CNS is below 0.01 µM; in the experiment on NCI-H226 lung, 0.0186 µM; with HT29 colon it was 0.0174 µM; in the experiment with UACC-257 melanoma, 0.0584 µM; with CAKI-1 renal, below 0.01 µM; in the experiment with HOP-62 NSCLC, below 0.01 µM. For the same compound, the GI50 with M14 melanoma and in the experiment with RXF 393 renal was below 0.01 µM in each case. Also, the TGI in the experiment with SF-539 CNS was 0.0649 µM; in the experiment with NCI-H226 lung, above 100 µM; in the experiment with HT29 colon, above 100 µM; in the experiment with UACC-257 melanoma, above 100 µM; with CAKI-1 renal, above 100 µM; in the experiment with HOP-62 NSCLC, above 100 µM. The values for the TGI with M14 melanoma and in the experiment on RXF 393 renal were 11.9 µM and 0.0518 µM, respectively.
Take `C=C1[C@@H]2CCC3[C@]4(C)C(CC[C@@]5(C)C(=O)O[C@H](O)[C@@H]45)[C@H](O)[C@]3(C2)[C@H]1OC1OC(CO)C(O)C(O)C1O` (some centres undefined): the TGI in the experiment with 786-0 renal, in the experiment on SF-539 CNS, in the experiment on NCI-H226 lung, in the experiment with HT29 colon, in the experiment with UACC-257 melanoma and with HOP-62 NSCLC was above 50 µM throughout. The TGI with M14 melanoma and in the experiment on RXF 393 renal was above 50 µM in each case.
Regarding `CCOC(=O)c1c(SCc2cc(=O)[nH]c(=O)[nH]2)n(-c2ccccc2)c(=S)n(-c2ccccc2)c1=O`, the TGI with 786-0 renal, with SF-539 CNS, in the experiment on HT29 colon, in the experiment with UACC-257 melanoma, in the experiment with CAKI-1 renal and in the experiment on HOP-62 NSCLC was above 100 µM each time. Moreover, the TGI with M14 melanoma, in the experiment on RXF 393 renal and in the experiment with MDA-MB-435 was above 100 µM in each case.
Consider `CSc1ccc(/C=C2\N=C(c3ccccc3)N(c3nc4cc(Cl)c(F)cc4s3)C2=O)cc1`, for which the TGI in the experiment with 786-0 renal was above 100 µM; in the experiment on SF-539 CNS it was 82.6 µM; with HT29 colon, above 100 µM; with UACC-257 melanoma, above 100 µM; in the experiment with CAKI-1 renal, above 100 µM; with HOP-62 NSCLC, 98.7 µM. Also, the TGI was above 100 µM in the experiment with M14 melanoma, 57.5 µM in the experiment on RXF 393 renal and above 100 µM in the experiment on MDA-MB-435.
Consider `CS(=O)(=O)Nc1ccc2ccccc2c1`, for which the TGI in the experiment with 786-0 renal, with SF-539 CNS, with NCI-H226 lung, in the experiment on HT29 colon, in the experiment on UACC-257 melanoma and with CAKI-1 renal was above 100 µM throughout. The TGI in the experiment with HOP-62 NSCLC, with M14 melanoma and in the experiment with MDA-MB-435 was above 100 µM each time.
As to `CSc1nc(Cl)c2c(n1)Sc1nc3ccccc3n1C2O` (centres undefined), the TGI with 786-0 renal was 18 µM; in the experiment with SF-539 CNS, 3.8 µM; with NCI-H226 lung it was 95 µM; in the experiment on HT29 colon, 25.4 µM; in the experiment on UACC-257 melanoma, above 100 µM; in the experiment on HOP-62 NSCLC, above 79 µM. Further, the TGI in the experiment with M14 melanoma was above 100 µM; with RXF 393 renal, 20.8 µM; in the experiment on MDA-MB-435, above 44.2 µM.
`CN1C2=Nc3n(c4ccccc4[n+]3C)CN2c2ccccc21`: the TGI with 786-0 renal, in the experiment with SF-539 CNS, in the experiment on HT29 colon, in the experiment on UACC-257 melanoma, in the experiment on CAKI-1 renal and in the experiment on HOP-62 NSCLC was above 100 µM in each case. Further, the TGI was above 100 µM in the experiment on M14 melanoma and 91 µM in the experiment with MDA-MB-435.
Take `CCCn1cc2c3c(cccc31)C1C=C(C)CN(C)C1C2` (centres undefined): the TGI in the experiment with SF-539 CNS is 59.5 µM; with NCI-H226 lung, 40.9 µM; in the experiment on HT29 colon, 42.7 µM; in the experiment with UACC-257 melanoma it was 29.6 µM; in the experiment on CAKI-1 renal, 44.2 µM; in the experiment on HOP-62 NSCLC, 67.2 µM. Besides, in the experiment with RXF 393 renal, the TGI was 52.7 µM.
Consider `O=[N+]([O-])c1ccc(-c2csc(=[N+]3CCCCC3)s2)cc1`, for which the TGI was above 100 µM in the experiment with 786-0 renal; above 100 µM in the experiment with SF-539 CNS; above 100 µM with HT29 colon; 31.4 µM in the experiment with UACC-257 melanoma; above 100 µM in the experiment with CAKI-1 renal; 11.6 µM in the experiment with HOP-62 NSCLC. Also, the TGI in the experiment with M14 melanoma and in the experiment with RXF 393 renal was above 100 µM in each case.
